Assay results: patent US6558435B2, “Reactive crystallization method to improve particle size” (Pfizer, Inc., priority 2000, dated 2003)
Counter-ions that a name gives are not always drawn.

Legend:
Type in all cases: physicochemical
[1] = Particle size analysis by Malvern light scattering, hexane as dispersant; conditions: for D90, 90% of the particles by volume less than / volume mean diameter, D[4,3] / fines (particles below about 1 micron detected): Malvern, hydrochloride monohydrate; for D90, 90% of the particles by volume less than / volume mean diameter, D[4,3]: dried crystals; for particle size distribution compared with batch crystallized and milled sample: impinging jet material vs comparative 15.6 kg sample
Protocol: X-ray diffraction (XRD) and differential scanning calorimetry (DSC) indicated the correct form of Ziprasidone hydrochloride monohydrate was produced by the impinging jet reactive crystallization process. The dried powder crystals were sieved through a 600 micron sieve as a means to delump. The particles were analyzed by Malvern using hexane as a dispersant.
The crystals were sieved through a 600 micron sieve to delump and the particles were analyzed by Malvern using hexane as a dispersant. […] According to patent EU 0 965 343 A2 (08.06.1999), the most preferred mean particle size of Ziprasidone hydrochloride monohydrates is in the 5-30 micron range obtained through milling operations which the present invention achieves without the need for high intensity milling. The particle sizes stipulated herein and in the claims refer to particle sizes determined with Malvern light scattering.
In a comparative 15.6 kg sample produced by the typical batch crystallization process method followed by milling using a pin mill at 10,000 rpm, the volume mean diameter, D[4,3], was 23.6 microns with 90% of the particles by volume less than 51 microns, while 5.4% of the batch by the volume distribution had particle size less than 1 micron indicating a much greater number of fines. […]

[2] = Dry particle sizing analysis (SympaTec)
Protocol: The crystals were dried in a vacuum oven at 50° C. and 10 inches of Hg with an air bleed for 24 hours. The dried material was sieved through a 30 mesh (600 μm) screen as a means to delump. Differential scanning calorimetry and x-ray diffraction confirmed the complete conversion to the Voriconazole free-base. No unreacted Voriconazole camphorsulfonate was detected.
Specification of product conventionally obtained by jet milling is 90% less than 130 microns and 50% less than 50 microns.

[3] = Particle size analysis (Aerosizer)
Protocol: Flow of neat methanol and ethyl acetate was initiated through their respective jets at 20 ml/min for 5 seconds from separate reservoirs to establish steady state flow. By way of two 3-way valves the solutions of 5,8,14-triazatetracyclo[10.3.1.0^2,11.0^4,9]-hexadeca-2(11),3,5,7,9-pentaene free base solution and (L)-tartaric acid were switched on so they would impinge each other at the same 20 ml/min flow rate. The velocities through the jets were 13.4 meters/sec. After 1 minute of impingement the flows were stopped and the resulting slurry was allowed to age in the agitated receiver for 5 minutes. The slurry was vacuum filtered and dried at 40° C. overnight and delumped through a 500 micron sieve.

[4] = Particle size of the jet milled seed (method not given)
Protocol: A receiving vessel contained 250 ml of methanol and 250 ml of ethyl acetate to which 20 milligrams of jet milled 5,8,14-triazatetracyclo[10.3.1.0^2,11.0^4,9]-hexadeca-2(11),3,5,7,9-pentaene (L)-tartrate were added as seed. […] The receiver was equipped with magnetic stirrer to suspend the seed in the methanol-ethyl acetate solvent system. The impinging jet apparatus was submerged in the receiver vessel with both jets having inside diameters of 0.007 inches (ID).

Compound | D90, 90% of the particles by volume less than [1] [microns] | volume mean diameter, D[4,3] [1] [microns] | fines (particles below about 1 micron detected) [1] | particle size distribution compared with batch crystallized and milled sample [1] | further results
O=C1Cc2cc(CCN3CCN(c4nsc5ccccc45)CC3)c(Cl)cc2N1 [Example 1, Ziprasidone hydrochloride monohydrate] | 83 | 43 | No particles with diameters of less that 0.9 micron were detected | narrower particle size distribution with fewer fines produced | –
O=C1Cc2cc(CCN3CCN(c4nsc5ccccc45)CC3)c(Cl)cc2N1 [Example 2, Ziprasidone hydrochloride monohydrate] | 41 | 22.5 | No particles of less that 1.0 micron were detected | narrower particle size distribution with fewer fines produced | –
O=C1Cc2cc(CCN3CCN(c4nsc5ccccc45)CC3)c(Cl)cc2N1 [Example 3, Ziprasidone hydrochloride monohydrate] | 210 | 104 | No particles below 1 micron were measured | – | –
C[C@@H](c1ncncc1F)[C@](O)(Cn1cncn1)c1ccc(F)cc1F [Example 4, Voriconazole free base] | – | – | – | – | 50% of particles (D[v,0.50]) less than [2]: 18 microns; 90% of particles (D[v,0.9]) less than [2]: 41 microns; volume mean diameter ([2]; sieved through 30 mesh): 22 microns
O=C(O)C(O)C(O)C(=O)O.c1cnc2cc3c(cc2n1)C1CNCC3C1 [Example 5, 5,8,14-triazatetracyclo[10.3.1.0^2,11.0^4,9]-hexadeca-2(11),3,5,7,9-pentaene L-tartrate] | – | – | – | – | 5% of particles less than [3]: 5 microns; 95% of the particles less than [3]: 15 microns; volume mean diameter ([3]; delumped through 500 micron sieve): 10 microns
O=C(O)C(O)C(O)C(=O)O.c1cnc2cc3c(cc2n1)C1CNCC3C1 [seed, 5,8,14-triazatetracyclo[10.3.1.0^2,11.0^4,9]-hexadeca-2(11),3,5,7,9-pentaene (L)-tartrate] | – | – | – | – | volume mean diameter [4]: 2.7 microns
